US20100273769A1, “COMPOSITION AND METHOD FOR THE TREATMENT OF PARKINSON'S DISEASE” (priority 2009, published 2010)
Where two headings read alike, the source gives them in different places.

Legend:
[1] = target: T1, wildtype human LRRK2 (Homo sapiens, UniProt Q5S007); test: Adapta assay, inhibition of wildtype human LRRK2 kinase fragment with LRRKtide; format: biochemical
T1 construct: human LRRK2 protein fragment encompassing amino acids 1326 to 2527; GST; made in house
T1 sequence (Q5S007 1326-2527): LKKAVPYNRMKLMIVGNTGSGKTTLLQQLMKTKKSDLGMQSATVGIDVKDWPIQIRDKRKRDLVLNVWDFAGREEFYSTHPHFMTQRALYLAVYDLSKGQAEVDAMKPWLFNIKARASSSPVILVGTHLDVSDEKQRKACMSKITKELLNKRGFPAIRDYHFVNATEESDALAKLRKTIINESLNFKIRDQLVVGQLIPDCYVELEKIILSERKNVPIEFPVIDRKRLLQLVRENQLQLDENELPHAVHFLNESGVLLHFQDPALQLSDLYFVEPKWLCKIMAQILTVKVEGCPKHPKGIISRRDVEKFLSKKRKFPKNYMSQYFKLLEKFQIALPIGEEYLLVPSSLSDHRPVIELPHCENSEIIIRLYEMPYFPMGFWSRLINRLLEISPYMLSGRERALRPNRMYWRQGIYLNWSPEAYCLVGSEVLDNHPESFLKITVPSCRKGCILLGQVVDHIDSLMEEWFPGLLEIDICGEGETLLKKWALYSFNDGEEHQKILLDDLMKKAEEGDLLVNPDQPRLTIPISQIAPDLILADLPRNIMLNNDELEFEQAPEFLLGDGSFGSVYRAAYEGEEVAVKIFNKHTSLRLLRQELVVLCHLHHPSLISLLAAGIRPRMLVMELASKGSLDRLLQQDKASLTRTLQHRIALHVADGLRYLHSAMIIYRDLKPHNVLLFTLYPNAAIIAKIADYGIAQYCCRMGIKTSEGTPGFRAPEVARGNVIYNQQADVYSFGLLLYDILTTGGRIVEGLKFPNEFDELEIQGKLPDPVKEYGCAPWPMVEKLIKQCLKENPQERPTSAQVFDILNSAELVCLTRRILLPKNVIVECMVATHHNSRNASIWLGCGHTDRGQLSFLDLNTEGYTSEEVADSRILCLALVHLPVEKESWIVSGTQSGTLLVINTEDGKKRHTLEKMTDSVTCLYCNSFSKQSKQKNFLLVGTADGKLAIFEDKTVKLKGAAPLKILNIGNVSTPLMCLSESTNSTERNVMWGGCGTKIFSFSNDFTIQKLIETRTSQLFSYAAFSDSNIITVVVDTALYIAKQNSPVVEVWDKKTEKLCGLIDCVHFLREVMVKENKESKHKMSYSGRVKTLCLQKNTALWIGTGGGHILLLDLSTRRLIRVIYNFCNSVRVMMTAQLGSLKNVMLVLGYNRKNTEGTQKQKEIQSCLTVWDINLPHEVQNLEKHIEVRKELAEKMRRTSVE

[2] = target: ERK2 (Homo sapiens, UniProt P28482); test: Kinase specificity, ERK2; format: biochemical; details: 100 μM ATP
[3] = target: Cdk1 (Homo sapiens, UniProt P06493); test: Kinase specificity, Cdk1; format: biochemical; details: 100 μM ATP
[4] = test system: R1441C LRRK2 transgenic C. elegans; test: Food-sensing (slowing) response in LRRK2 transgenic C. elegans; format: in vivo; details: Caenorhabditis elegans, 96 h; exposure through larval stages to adult stage day 4; read-out: Half-maximal restoration of the slowing response after food exposure
Description: Dopaminergic neurons in C. elegans are involved in food sensing behavior such that in the absence of food worms move more rapidly, as assessed by determining their bending frequency on an agar plate not supplied with food. In an established assay the animals are then exposed to food, and the difference in motility is recorded in the form of bending frequency [Sawin et al., Neuron 26, 619-631 (2000)]. […] In approximate synchrony with the dopaminergic neurodegeneration this slowing response is essentially eliminated after 4 days. […] The slowing response can be reconstituted to a substantial degree by supplementation with dopamine, confirming that the phenotype is due to loss of dopaminergic input (FIG. 5).
The clear-cut functional phenotype of this model can be used to determine the efficacy of LRRK2 kinase inhibitors and the accurate determination of their potency in a biological context. […] The potency is expressed as the half-maximal restoration of the slowing response. […]
The functional consequence of dopaminergic neurodegeneration was assayed using the food-sensing response resulting in a slowing of motility after food exposure as assessed by the frequency of body bending within 20 second intervals in groups of 10 animals [Sawin et al., Neuron 26, 619-631 (2000)]. […]

Cdk1, sequence (P06493 whole entry, species assumed): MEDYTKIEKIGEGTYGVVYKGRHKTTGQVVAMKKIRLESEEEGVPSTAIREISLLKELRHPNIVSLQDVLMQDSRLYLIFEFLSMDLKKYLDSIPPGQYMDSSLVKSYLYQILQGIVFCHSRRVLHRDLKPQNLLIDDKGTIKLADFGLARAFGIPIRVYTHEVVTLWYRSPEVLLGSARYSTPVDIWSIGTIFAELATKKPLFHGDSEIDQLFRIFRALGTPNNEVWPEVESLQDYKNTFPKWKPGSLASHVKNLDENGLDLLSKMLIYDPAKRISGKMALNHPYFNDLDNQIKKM
Cdk1, sequence (P14635 whole entry partner, species assumed): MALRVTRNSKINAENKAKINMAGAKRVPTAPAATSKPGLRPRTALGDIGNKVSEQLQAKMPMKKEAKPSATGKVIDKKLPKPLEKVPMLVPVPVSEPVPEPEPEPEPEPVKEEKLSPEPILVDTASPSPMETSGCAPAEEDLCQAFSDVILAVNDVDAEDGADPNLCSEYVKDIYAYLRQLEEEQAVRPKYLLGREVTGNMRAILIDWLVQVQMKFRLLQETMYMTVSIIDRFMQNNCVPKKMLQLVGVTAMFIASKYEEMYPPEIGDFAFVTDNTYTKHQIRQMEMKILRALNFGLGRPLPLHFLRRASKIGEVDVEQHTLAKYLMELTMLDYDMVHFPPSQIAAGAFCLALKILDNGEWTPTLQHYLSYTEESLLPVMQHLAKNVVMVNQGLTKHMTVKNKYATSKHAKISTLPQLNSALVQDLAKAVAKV
ERK2, sequence (P28482 whole entry, species assumed): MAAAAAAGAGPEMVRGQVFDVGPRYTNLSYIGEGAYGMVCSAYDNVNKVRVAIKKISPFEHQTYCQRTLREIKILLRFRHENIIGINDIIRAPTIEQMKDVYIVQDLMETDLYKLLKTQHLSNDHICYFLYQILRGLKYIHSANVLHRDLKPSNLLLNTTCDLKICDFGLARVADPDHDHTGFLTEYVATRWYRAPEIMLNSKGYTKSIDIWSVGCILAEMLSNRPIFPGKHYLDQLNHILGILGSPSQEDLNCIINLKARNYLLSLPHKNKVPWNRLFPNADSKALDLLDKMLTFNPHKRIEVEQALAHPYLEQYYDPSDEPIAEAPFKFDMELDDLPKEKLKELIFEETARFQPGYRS

Compound: CNC(=O)[C@@]1(N)CC2OC1(C)n1c3ccccc3c3c4c(c5c6ccccc6n2c5c31)C(=O)NC4 (stereo partly drawn) [Compound 3]
- IC50 relative to nominal kinase concentration, wild-type LRRK2 ([1]; 100 μM ATP, FIG. 3A): substantially below the nominal concentration of the kinase itself
- IC50 ([1]; 100 μM ATP, read-out: LRRK2): 1.1 nM
- IC50 ([1]; 100 microM ATP, read-out: LRRK2 inhibitory potency (essentially receptor-limited)): ≤ 1 nM
- IC50 [2]: 26 nM
- IC50 [3]: 17 nM
- EC50 [4]: 30 nM
